Measured values taken from article PMC4015918, “Conjugation to a SMAC mimetic potentiates sigma-2 ligand induced tumor cell death in ovarian cancer” (Molecular Cancer, 2014).

Legend:
[1] = biological target: T1, sigma-2 receptor (Rattus norvegicus, UniProt Q5U3Y7); assay: Sigma-2 receptor binding, [3H](+)-DTG displacement in rat liver membrane homogenates
T1 construct: guinea pig brain (sigma-1 assay) or rat liver (sigma-2 assay) membrane homogenates; from tissue; host or cells: rat liver membrane homogenate
T1 sequence (Q5U3Y7 1-176): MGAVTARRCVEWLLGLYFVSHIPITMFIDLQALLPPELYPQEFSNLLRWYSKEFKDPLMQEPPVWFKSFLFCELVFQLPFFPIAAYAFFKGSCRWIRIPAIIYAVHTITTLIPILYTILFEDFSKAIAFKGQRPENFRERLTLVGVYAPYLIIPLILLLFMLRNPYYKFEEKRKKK
Procedure: In order to verify its unaltered target recognition properties, the binding affinity of SW IV-134 to the sigma-2 receptor was determined using previously established methods employing rat liver membrane homogenates (see M&M and Ref [19] for details on receptor binding determinations). […] As another means to probe for the ability of SW IV-134 to bind to the sigma-2 receptor, we performed a competition assay using intact ovarian cancer cells and the fluorescently labeled SW43 homolog SW120 [21].
The sigma-1 and sigma-2 receptor binding affinities of SW IV-134 were determined as previously described. […] Each filter was washed three times with 200 μL of ice-cold wash buffer, and the bound radioactivity quantified using a Wallac 1450 MicroBeta liquid scintillation counter (Perkin Elmer, Boston, MA). Nonspecific binding was determined in the presence of 10 μM cold haloperidol. […]
Table S1. […] The sigma-1 and sigma-2 receptor binding affinities of S W I V-134 were determined as previously described (22). For details see also the Materials and Methods section. a Mean ± S .E .M .K i values were determined by at least three ex periments. b Ki for inhibiting the binding of [ 3H] […]

[2] = tested on: NIK; assay: Western blot for NF-қB-inducing kinase (NIK); type: cell-based; conditions: SKOV3 cells, 10 μM, 4 hours
Procedure: Figure 4 SW IV-134 engages in SMAC-dependent pathway activation. (A) SKOV3 cells were treated with vehicle only (Ctrl.), SW43 (10 μM), and SW IV-134 (10 μM) for 4 hours and cell lysates were subjected to Western blot analysis using antibodies against XIAP, cIAP-1, cIAP-2, NF-қB and NIK. While XIAP seems unaffected under the conditions used, cIAP-1 and cIAP-2 proteins are readily undetectable shortly post treatment. SW IV-134 treatment also leads to accumulation of NF-қB inducing kinase (NIK) and activation of NF-қB pathway. (B) SKOV3 cells were treated with SW IV-134 at the indicated doses either alone or in the presence of proteasome inhibitor MG132 (20 μM) for 18 hours. […] Cell viability was determined as described in the experimental methods (p < 0.011, Student’s t-test).
Cells were lysed in radioimmunoprecipitation assay buffer [50 mM Tris, 150 mM sodium chloride, 1.0 mM EDTA, 1% Nonidet P40, and 0.25% SDS (pH 7.0)], supplemented with complete protease inhibitor cocktail (Roche, Mannheim) and phosphatase inhibitor cocktail 1 (Sigma Chemical Co., St. Louis, MO). The protein concentration was determined using a BioRad Dc protein assay kit (Bio-Rad Laboratories, Hercules, CA). Lysates containing 30 μg of protein were run on a 12% polyacrylamide gel and transferred to a PVDF membrane (Bio-Rad Laboratories, Hercules, CA). […]

Row | Compound | Ki [1] [nM] | Accumulation of NIK [2]
1 | COc1ccc(C)cc1NC(=O)OC1CC2CCCC(C1)N2CCCCCCCCCCN[C@@H](C)C(=O)N[C@H](C(=O)N1CCC[C@H]1C(=O)N[C@@H]1CCCc2ccccc21)C(C)(C)C (stereo partly shown) [SW IV-134] | 22.6 ± 1.8 | accumulation of NIK
2 | COc1ccc(C)cc1NC(=O)OC1CC2CCCC(C1)N2CCCCCCCCCCN (stereo not shown) [SW43, reference compound] | 7.1 ± 1.3 | not seen
